From US20020137929A1, “1 - (3-heterocyclylphenyl) isothiourea, -isourea, -guanidine and -amidine herbicidal agents” (Intellectual Property Department, BASF Aktiengesellschaft, priority 1998, published 2002)

Tests used:
ABUTH (Velvetleaf) [1] = test: Postemergence herbicidal evaluation; assay type: in vivo, Abutilon theophrasti; conditions: postemergence
Outline: (§1)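 First, seedlings were raised for around two weeks. Next, test material in 50/50 acetone/water containing 0.5% TWEEN 20 was sprayed through a nozzle at 40 psi, equivalent to about 0.0156–0.500 kg/ha. Finally, after 4–5 weeks in the greenhouse, plants were rated 0–9.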

[2] = test system: IPOHE (Morningglory, Ivyleaf); test: Postemergence herbicidal evaluation; assay type: in vivo, Ipomoea hederacea; conditions: postemergence
Outline: as §1

SETVI (Foxtail, Green) = test: Postemergence herbicidal evaluation; assay type: in vivo, Setaria viridis; conditions: postemergence
Outline: as §1

[3] = test system: GLXMAW (Soybean, Williams); test: Postemergence herbicidal evaluation; assay type: in vivo, Glycine max, (L.) Merr. cv Williams; conditions: postemergence
Outline: as §1

ZEAMX (Corn, Field) = test: Postemergence herbicidal evaluation; assay type: in vivo, Zea mays; conditions: postemergence
Outline: as §1

ABUTH (Velvetleaf) [4] = test: Preemergence herbicidal evaluation; assay type: in vivo, Abutilon theophrasti; conditions: preemergence, rated 4-5 weeks after treatment, 0-9 scale
Outline: (§2)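 Scores (0–9) reflect visual comparison with control plants for stand, vigor, malformation, size and chlorosis. Compound was applied to the soil after sowing, before emergence, as an aqueous acetone spray (about 0.0156–0.500 kg/ha), and cups were kept in a greenhouse for 4–5 weeks.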

AMBEL (Ragweed, Common) = test: Preemergence herbicidal evaluation; assay type: in vivo, Ambrosia artemisifolia; conditions: preemergence, rated 4-5 weeks after treatment, 0-9 scale
Outline: as §2

CASOB (Sicklepod) = test: Preemergence herbicidal evaluation; assay type: in vivo, Cassia obtusifolia; conditions: preemergence, rated 4-5 weeks after treatment, 0-9 scale
Outline: as §2

[5] = test system: IPOHE (Morningglory, Ivyleaf); test: Preemergence herbicidal evaluation; assay type: in vivo, Ipomoea hederacea; conditions: preemergence, rated 4-5 weeks after treatment, 0-9 scale
Outline: as §2

ECHCG (Barnyardgrass) = test: Preemergence herbicidal evaluation; assay type: in vivo, Echinochloa crus-galli; conditions: preemergence, rated 4-5 weeks after treatment, 0-9 scale
Outline: as §2

[6] = test system: ECHORC (Watergrass (Calif.)); test: Preemergence weed control under flooded paddy conditions; assay type: in vivo, Echinochloa oryzoides; conditions: rated 3-4 weeks after treatment
Outline: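 Seeds or propagules sown in silt loam kept flooded 1.5-3 cm; compounds in 50/50 acetone/water pipetted into flood water at about 0.0313 to 0.500 kg/ha. Greenhouse; visual 0-9 rating versus untreated control 3-4 weeks after treatment.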

CYPSE (Flatsedge) = test: as above; assay type: in vivo, Cyperus serotinus; conditions: rated 3-4 weeks after treatment
Outline: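 Visual injury scored 0-9 against control three to four weeks post-treatment, greenhouse-grown. Application: acetone/water (50/50) solutions dosed directly into flood water (1.5-3 cm over silt loam, planted top 0.5 cm), roughly 0.0313 to 0.500 kg/ha active ingredient.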

[7] = test system: ECHORC (Watergrass (Calif.)); test: Postemergence weed control under flooded paddy conditions; assay type: in vivo, Echinochloa oryzoides; conditions: postemergence weeds, rated 3 to 4 weeks after treatment
Outline: (§3)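 Weeds 3 to 5 cm tall and rice seedlings at the 1.5 to 2.5 leaf stage were flooded, with water held 1.5 to 3 cm above the soil. Compounds in 50/50 v/v aqueous/acetone went into the flood water at about 0.0313 to 0.500 kg/ha. Visual 0-9 ratings versus control were made 3 to 4 weeks later.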

CYPIR (Rice Flatsedge) = test: as above; assay type: in vivo, Cyperus iria; conditions: postemergence weeds, rated 3 to 4 weeks after treatment
Outline: as §3

COC(=O)CC1SC(=Nc2cc(-n3c(=O)cc(C(F)(F)F)n(C)c3=O)c(F)cc2Cl)N(C)C1=O (centres unmarked) [Compound 88, Methyl 2-{{2-chloro-5-[3,6-dihydro-3-methyl-2,6-dioxo-4-(trifluoromethyl)-1(2H)-pyrimidinyl]-4-fluorophenyl}imino}-3-methyl-4-oxo-5-thiazolidineacetate]
ABUTH herbicidal rating (ABUTH (Velvetleaf) [1]; rate 0.0158 kg/ha): 9.0 | ABUTH herbicidal rating (ABUTH (Velvetleaf) [1]; rate 0.0315 kg/ha): 9.0 | ABUTH herbicidal rating (ABUTH (Velvetleaf) [1]; rate 0.0630 kg/ha): 9.0 | IPOHE herbicidal rating ([2]; rate 0.0158 kg/ha): 9.0 | IPOHE herbicidal rating ([2]; rate 0.0315 kg/ha): 9.0 | IPOHE herbicidal rating ([2]; rate 0.0630 kg/ha): 9.0 | SETVI herbicidal rating (SETVI (Foxtail, Green); rate 0.0158 kg/ha): 9.0 | SETVI herbicidal rating (SETVI (Foxtail, Green); rate 0.0315 kg/ha): 9.0 | SETVI herbicidal rating (SETVI (Foxtail, Green); rate 0.0630 kg/ha): 9.0 | GLXMAW herbicidal rating ([3]; rate 0.0158 kg/ha): 8.5 | GLXMAW herbicidal rating ([3]; rate 0.0315 kg/ha): 8.5 | GLXMAW herbicidal rating ([3]; rate 0.0630 kg/ha): 9.0 | ZEAMX herbicidal rating (ZEAMX (Corn, Field); rate 0.0158 kg/ha): 7.5 | ZEAMX herbicidal rating (ZEAMX (Corn, Field); rate 0.0315 kg/ha): 8.5 | ZEAMX herbicidal rating (ZEAMX (Corn, Field); rate 0.0630 kg/ha): 9.0 | ABUTH rating (ABUTH (Velvetleaf) [4]; 0.0156 kg/ha): 9.0 | ABUTH rating (ABUTH (Velvetleaf) [4]; 0.0313 kg/ha): 9.0 | ABUTH rating (ABUTH (Velvetleaf) [4]; 0.0625 kg/ha): 9.0 | ABUTH rating (ABUTH (Velvetleaf) [4]; 0.1250 kg/ha): 9.0 | ABUTH rating (ABUTH (Velvetleaf) [4]; 0.2500 kg/ha): 9.0 | AMBEL rating (AMBEL (Ragweed, Common); 0.0156 kg/ha): 0.0 | AMBEL rating (AMBEL (Ragweed, Common); 0.0313 kg/ha): 0.0 | AMBEL rating (AMBEL (Ragweed, Common); 0.0625 kg/ha): 7.0 | AMBEL rating (AMBEL (Ragweed, Common); 0.1250 kg/ha): 9.0 | AMBEL rating (AMBEL (Ragweed, Common); 0.2500 kg/ha): 9.0 | CASOB rating (CASOB (Sicklepod); 0.0156 kg/ha): 0.0 | CASOB rating (CASOB (Sicklepod); 0.0313 kg/ha): 0.0 | CASOB rating (CASOB (Sicklepod); 0.0625 kg/ha): 0.0 | CASOB rating (CASOB (Sicklepod); 0.1250 kg/ha): 3.0 | CASOB rating (CASOB (Sicklepod); 0.2500 kg/ha): 9.0 | IPOHE rating ([5]; 0.0156 kg/ha): 0.0 | IPOHE rating ([5]; 0.0313 kg/ha): 0.0 | IPOHE rating ([5]; 0.0625 kg/ha): 0.0 | IPOHE rating ([5]; 0.1250 kg/ha): 9.0 | IPOHE rating ([5]; 0.2500 kg/ha): 9.0 | ECHCG rating (ECHCG (Barnyardgrass); 0.0156 kg/ha): 0.0 | ECHCG rating (ECHCG (Barnyardgrass); 0.0313 kg/ha): 0.0 | ECHCG rating (ECHCG (Barnyardgrass); 0.0625 kg/ha): 0.0 | ECHCG rating (ECHCG (Barnyardgrass); 0.1250 kg/ha): 0.0 | ECHCG rating (ECHCG (Barnyardgrass); 0.2500 kg/ha): 2.0 | ECHORC herbicidal effect rating ([6]; 0.0313 kg/ha): 6.0 | ECHORC herbicidal effect rating ([6]; 0.0625 kg/ha): 6.0 | ECHORC herbicidal effect rating ([6]; 0.1250 kg/ha): 6.0 | ECHORC herbicidal effect rating ([6]; 0.2500 kg/ha): 7.0 | CYPSE herbicidal effect rating (CYPSE (Flatsedge); 0.0313 kg/ha): 3.0 | CYPSE herbicidal effect rating (CYPSE (Flatsedge); 0.0625 kg/ha): 5.0 | CYPSE herbicidal effect rating (CYPSE (Flatsedge); 0.1250 kg/ha): 7.0 | CYPSE herbicidal effect rating (CYPSE (Flatsedge); 0.2500 kg/ha): 7.0 | Herbicidal rating ECHORC ([7]; Rate 0.0313 kg/ha): 6.0 | Herbicidal rating ECHORC ([7]; Rate 0.0625 kg/ha): 6.0 | Herbicidal rating ECHORC ([7]; Rate 0.1250 kg/ha): 6.0 | Herbicidal rating ECHORC ([7]; Rate 0.2500 kg/ha): 7.0 | Herbicidal rating CYPIR (CYPIR (Rice Flatsedge); Rate 0.0313 kg/ha): 0.0 | Herbicidal rating CYPIR (CYPIR (Rice Flatsedge); Rate 0.0625 kg/ha): 0.0 | Herbicidal rating CYPIR (CYPIR (Rice Flatsedge); Rate 0.1250 kg/ha): 0.0 | Herbicidal rating CYPIR (CYPIR (Rice Flatsedge); Rate 0.2500 kg/ha): 0.0
